Measurements from US9512120B2, “Microbicidally active imidazopyridine derivatives” (Syngenta Participations AG, priority 2013, dated 2016).

Experiments:
Gaeumannomyces graminis = Gaeumannomyces graminis / liquid culture (take-all of cereals); type: cell-based; settings: PDB, 24° C., 4-5 days after application, read-out: control of Gaeumannomyces graminis (inhibition of growth, photometric)
Procedure: Gaeumannomyces graminis/Liquid Culture (Take-all of Cereals): Mycelial fragments of the fungus from cryogenic storage were directly mixed into nutrient broth (PDB potato dextrose broth). After placing a DMSO solution of test compound into a 96-well microtiter plate at an application rate of 200 ppm, the nutrient broth […], containing the fungal spores is added. The test plates were incubated at 24° C. and the inhibition of growth was determined photometrically 4-5 days after application.

Pyrenophora teres = Pyrenophora teres / barley / leaf disc preventative (net blotch); type: in vivo; settings: foliar, barley leaf segments cv Hasso, inoculated two days after application, assessed 5-7 days after application, read-out: control of Pyrenophora teres (disease control compared to untreated)
How it was run: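 Preventative leaf-disc test: 200 ppm spray, then spore inoculation after two days on barley cv Hasso segments. Incubation 20 °C, 65% relative humidity, 12 h light/12 h dark; efficacy rated against untreated checks at 5-7 days post-application.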

Sclerotinia sclerotiorum = Sclerotinia sclerotiorum liquid culture (cottony rot / white mold); type: cell-based; settings: PDB, 24° C., 3-4 days after application, read-out: control of Sclerotinia sclerotiorum (inhibition of growth, photometric)
Procedure: Sclerotinia sclerotiorum (Cottony Rot/White Mold): Mycelia fragments of a newly grown liquid culture of the fungus were directly mixed into nutrient broth (PDB potato dextrose broth). After placing a (DMSO) solution of test compound into a microtiter plate (96-well format) the nutrient broth containing the fungal material was added. The test plates are incubated at 24° C. and the inhibition of growth was determined photometrically 3-4 days after application.

[1] = tested on: Mycosphaerella graminicola (Septoria tritici); test: Mycosphaerella graminicola (Septoria tritici) / liquid culture (Septoria blotch); type: cell-based; settings: Zymoseptoria tritici, PDB, 24° C., 4-5 days after application, read-out: control of Mycosphaerella graminicola (inhibition of growth, photometric)
How it was run: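 Growth inhibition was read photometrically after 4–5 days at 24 °C. The test compound was applied at 200 ppm from DMSO solution, then PDB broth seeded with conidia taken straight from cryogenic storage was added.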

[2] = tested on: Thanatephorus cucumeris (Rhizoctonia solani); test: Thanatephorus cucumeris (Rhizoctonia solani) / liquid culture (foot rot, damping-off); type: cell-based; settings: PDB, 24° C., 3-4 days after application, read-out: control of Thanatephorus cucumeris (inhibition of growth, photometric)
How it was run: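 At 200 ppm, compounds in DMSO were combined with fresh liquid-culture mycelia in PDB and kept at 24° C; photometric measurement of growth inhibition after 3-4 days.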

[3] = tested on: Botryotinia fuckeliana (Botrytis cinerea); test: Botryotinia fuckeliana (Botrytis cinerea) / liquid culture (gray mould); type: cell-based; settings: Vogels broth, 24° C., 3-4 days after application, read-out: control of Botryotinia fuckeliana (inhibition of growth, photometric)
Procedure: Botryotinia Fuckeliana (Botrytis cinerea)/Liquid Culture (Gray Mould): Conidia of the fungus from cryogenic storage were directly mixed into nutrient broth (Vogels broth). After placing a DMSO solution of test compound into a 96-well microtiter plate at an application rate of 200 ppm, the nutrient broth containing the fungal spores was added. The test plates were incubated at 24° C. and the inhibition of growth was determined photometrically 3-4 days after application.

[4] = tested on: Puccinia recondita f. sp. Tritici; test: Puccinia recondita f. sp. tritici / wheat / leaf disc preventative (brown rust); type: in vivo; settings: foliar, wheat leaf segments cv Kanzler, inoculated 1 day after application, assessed 7-9 days after application, read-out: control of Puccinia recondita f. sp. Tritici (percent disease control compared to untreated)
Procedure: Puccinia recondita f. Sp. Tritici/Wheat/Leaf Disc Preventative (Brown Rust): Wheat leaf segments cultivated variety (cv) Kanzler were placed on agar in 24-well plates and sprayed with formulated test compound diluted in water at an application rate of 200 ppm. The leaf disks were inoculated with a spore suspension of the fungus 1 day after application. The inoculated leaf segments were incubated at 19° C. and 75% relative humidity under a light regime of 12/12 h (light/dark) in a climate cabinet and the activity of a compound was assessed as percent disease control compared to untreated when an appropriate level of disease damage appears in untreated check leaf segments (7-9 days after application).

[5] = tested on: Glomerella lagenarium (Colletotrichum lagenarium); test: Glomerella lagenarium (Colletotrichum lagenarium) / liquid culture (anthracnose); type: cell-based; settings: Colletotrichum orbiculare, PDB, 24° C., 3-4 days after application, read-out: control of Glomerella lagenarium (inhibition of growth, photometric)
Procedure: Glomerella lagenarium (Colletotrichum lagenarium)/Liquid Culture (Anthracnose): Conidia of the fungus from cryogenic storage were directly mixed into nutrient broth (PDB potato dextrose broth). After placing a DMSO solution of test compound into a 96-well microtiter plate at an application rate of 200 ppm, the nutrient broth containing the fungal spores was added. The test plates were incubated at 24° C. and the inhibition of growth is measured photometrically 3-4 days after application.

[6] = tested on: Monographella nivalis (Microdochium nivale); test: Monographella nivalis (Microdochium nivale) / liquid culture (foot rot cereals); type: cell-based; settings: PDB, 24° C., 4-5 days after application, read-out: control of Monographella nivalis (inhibition of growth, photometric)
Procedure: Monographella nivalis (Microdochium nivale)/Liquid Culture (Foot Rot Cereals): Conidia of the fungus from cryogenic storage were directly mixed into nutrient broth (PDB potato dextrose broth). After placing a DMSO solution of test compound into a 96-well microtiter plate at an application rate of 200 ppm, the nutrient broth containing the fungal spores was added. The test plates were incubated at 24° C. and the inhibition of growth was determined photometrically 4-5 days after application.

[7] = tested on: Phaeosphaeria nodorum (Septoria nodorum); test: Phaeosphaeria nodorum (Septoria nodorum) / wheat / leaf disc preventative (glume blotch); type: in vivo; settings: Parastagonospora nodorum, foliar, wheat leaf segments cv Kanzler, inoculated 2 days after application, assessed 5-7 days after application, read-out: control of Phaeosphaeria nodorum (percent disease control compared to untreated)
Procedure: Phaeosphaeria nodorum (Septoria nodorum)/Wheat/Leaf Disc Preventative (Glume Blotch): Wheat leaf segments cv Kanzler were placed on agar in a 24-well plate and sprayed with formulated test compound diluted in water at an application rate of 200 ppm. The leaf disks are inoculated with a spore suspension of the fungus 2 days after application. The inoculated test leaf disks are incubated at 20° C. and 75% relative humidity under a light regime of 12/12 h (light/dark) in a climate cabinet and the activity of a compound is assessed as percent disease control compared to untreated when an appropriate level of disease damage appears in untreated check leaf disks (5-7 days after application).

CCn1c(-n2ncnc2N)nc2cncc(-c3cc(C(F)(F)F)ccc3F)c21 [Compound 84, 2-[1-ethyl-7-[2-fluoro-5-(trifluoromethyl)phenyl]imidazo[4,5-c]pyridin-2-yl]-1,2,4-triazol-3-amine]
≥ 80%: inhibition at 20 ppm (Gaeumannomyces graminis) | pest or weed control at 200 ppm (Pyrenophora teres) | inhibition at 20 ppm (Sclerotinia sclerotiorum) | inhibition at 20 ppm [1] | inhibition at 20 ppm [2] | inhibition at 20 ppm [3]

CCn1c(-n2ncnc2N)nc2cncc(-c3ccc(C)c(F)c3)c21 [Compound 41, 2-[1-ethyl-7-(3-fluoro-4-methylphenyl)imidazo[4,5-c]pyridin-2-yl]-1,2,4-triazol-3-amine]
≥ 80%: pest or weed control at 200 ppm (Pyrenophora teres) | inhibition at 20 ppm (Sclerotinia sclerotiorum) | pest or weed control at 200 ppm [4] | inhibition at 20 ppm [1] | inhibition at 20 ppm [2] | inhibition at 20 ppm [3]

CCn1c(-n2ncnc2N)nc2cncc(-c3ccc(C(F)(F)F)cc3Cl)c21 [Compound 97]
≥ 80%: inhibition at 20 ppm (Gaeumannomyces graminis) | pest or weed control at 200 ppm (Pyrenophora teres) | inhibition at 20 ppm (Sclerotinia sclerotiorum) | pest or weed control at 200 ppm [4] | inhibition at 20 ppm [1] | inhibition at 20 ppm [2] | inhibition at 20 ppm [3] | inhibition at 20 ppm [5] | inhibition at 20 ppm [6]

CCn1c(-n2ncnc2N)nc2cncc(-c3cc(Cl)ccc3F)c21 [Compound 91, 2-[7-(5-chloro-2-fluorophenyl)-1-ethylimidazo[4,5-c]pyridin-2-yl]-1,2,4-triazol-3-amine]
≥ 80%: inhibition at 20 ppm (Gaeumannomyces graminis) | pest or weed control at 200 ppm (Pyrenophora teres) | inhibition at 20 ppm (Sclerotinia sclerotiorum) | pest or weed control at 200 ppm [4] | inhibition at 20 ppm [1] | inhibition at 20 ppm [2] | inhibition at 20 ppm [3] | inhibition at 20 ppm [5] | inhibition at 20 ppm [6]

CCCn1c(-n2ncnc2N)nc2cncc(/C(C)=N\OCC=C(C)C)c21 [Compound 188]
≥ 80%: inhibition at 20 ppm (Gaeumannomyces graminis) | pest or weed control at 200 ppm (Pyrenophora teres) | pest or weed control at 200 ppm [7] | inhibition at 20 ppm (Sclerotinia sclerotiorum) | pest or weed control at 200 ppm [4] | inhibition at 20 ppm [1] | inhibition at 20 ppm [2] | inhibition at 20 ppm [3] | inhibition at 20 ppm [6]

CCCn1c(-n2ncnc2N)nc2cncc(/C(C)=N/OC/C=C\Cl)c21 [Compound 181]
≥ 80%: inhibition at 20 ppm (Gaeumannomyces graminis) | pest or weed control at 200 ppm (Pyrenophora teres) | inhibition at 20 ppm (Sclerotinia sclerotiorum) | pest or weed control at 200 ppm [4] | inhibition at 20 ppm [1] | inhibition at 20 ppm [2] | inhibition at 20 ppm [3] | inhibition at 20 ppm [6]

CCn1c(-n2ncnc2N)nc2cncc(-c3ccc(Cl)cc3)c21 [Compound 35, 2-[7-(4-chlorophenyl)-1-ethylimidazo[4,5-c]pyridin-2-yl]-1,2,4-triazol-3-amine]
≥ 80%: pest or weed control at 200 ppm (Pyrenophora teres) | inhibition at 20 ppm (Sclerotinia sclerotiorum) | pest or weed control at 200 ppm [4] | inhibition at 20 ppm [1] | inhibition at 20 ppm [2] | inhibition at 20 ppm [3] | inhibition at 20 ppm [5]

CCn1c(-n2ncnc2N)nc2cncc(-c3cc4ccccc4nc3F)c21 [Compound 66, 2-[1-ethyl-7-(2-fluoroquinolin-3-yl)imidazo[4,5-c]pyridin-2-yl]-1,2,4-triazol-3-amine]
≥ 80%: inhibition at 20 ppm (Gaeumannomyces graminis) | pest or weed control at 200 ppm (Pyrenophora teres) | pest or weed control at 200 ppm [7] | inhibition at 20 ppm (Sclerotinia sclerotiorum) | inhibition at 20 ppm [1] | inhibition at 20 ppm [2] | inhibition at 20 ppm [3]

CCn1c(-n2ncnc2N)nc2cncc(/C(C)=N/OC/C=C\Cl)c21 [Compound 171]
≥ 80%: inhibition at 20 ppm (Gaeumannomyces graminis) | pest or weed control at 200 ppm (Pyrenophora teres) | pest or weed control at 200 ppm [7] | inhibition at 20 ppm (Sclerotinia sclerotiorum) | inhibition at 20 ppm [1] | inhibition at 20 ppm [2] | inhibition at 20 ppm [3] | inhibition at 20 ppm [5] | inhibition at 20 ppm [6]

CCCON=C(C)c1cncc2nc(-n3ncnc3N)n(CC)c12 [Compound 143]
≥ 80%: pest or weed control at 200 ppm (Pyrenophora teres) | pest or weed control at 200 ppm [7] | inhibition at 20 ppm (Sclerotinia sclerotiorum) | pest or weed control at 200 ppm [4] | inhibition at 20 ppm [1] | inhibition at 20 ppm [2] | inhibition at 20 ppm [3] | inhibition at 20 ppm [5]

CCn1c(-n2ncnc2N)nc2cncc(-c3ccc(OC)cc3Cl)c21 [Compound 94, 2-[7-(2-chloro-4-methoxyphenyl)-1-ethylimidazo[4,5-c]pyridin-2-yl]-1,2,4-triazol-3-amine]
≥ 80%: inhibition at 20 ppm (Gaeumannomyces graminis) | pest or weed control at 200 ppm (Pyrenophora teres) | pest or weed control at 200 ppm [7] | inhibition at 20 ppm (Sclerotinia sclerotiorum) | pest or weed control at 200 ppm [4] | inhibition at 20 ppm [1] | inhibition at 20 ppm [2] | inhibition at 20 ppm [3] | inhibition at 20 ppm [5] | inhibition at 20 ppm [6]

CCn1c(-n2ncnc2N)nc2cncc(/C(C)=N/OC/C=C/Cl)c21 [Compound 150]
≥ 80%: pest or weed control at 200 ppm (Pyrenophora teres) | inhibition at 20 ppm (Sclerotinia sclerotiorum) | pest or weed control at 200 ppm [4] | inhibition at 20 ppm [1] | inhibition at 20 ppm [2] | inhibition at 20 ppm [3] | inhibition at 20 ppm [5] | inhibition at 20 ppm [6]
